Source: patent US20240299698A1, “PREVENTION AND TREATMENT OF POST-OPERATIVE COGNITIVE DYSFUNCTION (POCD)” (Noetix Pharma LLC, priority 2022, published 2024)

Tests used:
Format in all cases: in vivo, Male C57BI/6 mice
[1] = system: hippocampal microglial cells; assay: Evaluation of hippocampal microglial cell morphology (Iba1 immunohistochemistry); conditions: for Iba1-positive microglial cell morphology (activated characteristics), rank 0-2: 8 days post-surgery, n=8
Protocol: A subset of mice was evaluated to compare acute and chronic treatment of pirfenidone paradigms against Normal Control and Disease Control tissues (n=8/treatment group). A neuroinflammation marker, ionizing calcium binding adaptor molecule 1 (Iba1), was investigated in the hippocampus as an indication of the level of inflammatory response. The hippocampus is particularly vulnerable to both acute and chronic stressors, including those triggered by physical trauma.
The right hemispheres of a subsection of study mice were evaluated via fluorescent IHC analysis to investigate the impact of laparotomy and drug intervention on hippocampal inflammatory mechanisms. Iba1 was assessed as a marker of neuroinflammation because it is indicative of inflammatory response in the central nervous system.
Cryoprotected hemispheres were blocked in OCT compound (Thermofisher) and stored at −80° C. until sectioning. […]
• To obtain micrographs for quantification • Fluorescent microscope (Zeiss Axio Observer Z1) Apotome.2 imaging system Zeiss imaging software (Zen 2 Blue edition) • Settings were manually selected to allow visualization of signal on all sections (signal must be visible on low intensity sections but must not be overexposed on high intensity sections). […]
Ionized calcium-binding adapter molecule 1 (Iba1) is a microglia-specific calcium-binding protein that participates in phagocytosis in activated microglia. […] Iba1 is thus a sensitive marker of inflammation and is quantified by measuring the intensity of the Iba1 positive signal. […]
Hippocampal tissue from the right hemispheres was evaluated for functional cell morphology using non-parametric rank ordering of tissue as follows: • 0=normal morphology (ramified, mostly ramified) • 1=moderate morphology (ramified-activated) • 2=activated morphology (activated, activated ameboid, ameboid)

[2] = Body weight monitoring after surgery; conditions: Acute and Chronic dose groups vs controls
Protocol: Mice were weighed 24 hours after arrival, weekly prior to the initiation of pirfenidone administration, and then daily throughout the remainder of the study. Post-induction, animals were assessed daily to monitor body condition, pain response, and general recovery parameters. • Test System: Male C57BI/6 mice • Number of Animals/Group: 12 animals per group (total of 48 mice) • Age: Cohort 1: 12 weeks at arrival • Cohort 2: 10 weeks at arrival • Model Induction: Performed at 14 weeks of age • Weight: 31.6±0.42 SEM g at time of surgery • Allocation: Animals were pseudo-randomly assigned to treatment groups balanced for weight • Health inspection: A health inspection was performed by a clinical veterinarian prior to the commencement of the study.
Mice were weighed 24 hours after arrival, weekly prior to the initiation of Test Article administration, and then daily throughout the remainder of the study.

[3] = system: mouse model of (POCD); assay: Behavioral test battery, summary of experimental results
Text: The project included experiments performed to investigate the therapeutic effects of administration of pirfenidone in a mouse model of (POCD). The model was developed during pilot work completed earlier in the study and was induced by performing a laparotomy with a 5-minute manipulation of abdominal viscera and musculature. Weights and physical condition of the animals were closely monitored throughout the study, with presurgical and daily post-surgical gavage of pirfenidone or saline administered. Behavioral testing was performed to evaluate alterations in learning and memory processes using fear conditioning, novel object recognition, and water maze paradigms. Following euthanasia on the eighth day post-surgery, hippocampal tissue was preserved and later evaluated for morphological characteristics related to microglial cell activation.
Behavioral testing was performed at various time points throughout the study as outlined in each separate section below and summarized in Table 2. All tests were recorded and analyzed by experimenters blinded to treatment. Data were obtained through a combination of experimenter scoring and use of AnyMaze™ Video Tracking System evaluation.

Cc1ccc(=O)n(-c2ccccc2)c1 [pirfenidone, 5-methyl-1-phenyl-2-(1H)-pyridone]
Iba1-positive microglial cell morphology (activated characteristics), rank 0-2 ([1]; Acute): reduced this microglial activation
Iba1-positive microglial cell morphology (activated characteristics), rank 0-2 ([1]; Chronic): reduced this microglial activation
microglial activation in the hippocampus (summary) ([1]; summary statement, regimen not distinguished): reduced microglial activation in the hippocampus
weight loss at 24 hours post-surgery [2]: did not differ between groups
behavioral testing responses (summary) ([3]; Acute pirfenidone treated animals): equivalent to or better than those seen in Normal Controls
behavioral testing responses (summary) ([3]; Chronic pirfenidone administration): beneficial effects, particularly for recognition memory
behavioral changes associated with memory in postoperative cognitive dysfunction (summary) ([3]; overall, pirfenidone treatment): protective effect
